Measured values as given in paper PMC9403610, “Efficient screening of pancreatic lipase inhibitors from cod meat hydrolysate through ligand fishing strategy” (Frontiers in Nutrition, 2022).
pIC50, pKi: −log10 of the molar value. Where no end group is shown, it is not given here.

Columns and labels:
[1] = target: T1, Porcine pancreatic lipase (PL) (Sus scrofa, UniProt P00591); assay: Pancreatic lipase inhibition assay (pNPB substrate, absorbance 405 nm); type: biochemical; details: for pIC50: pNPB substrate, Tris-HCl pH 7.5, 37°C
T1 construct: purchased Sigma Chemical Co. (St. Louis, MO, USA)
T1 sequence (P00591 1-450): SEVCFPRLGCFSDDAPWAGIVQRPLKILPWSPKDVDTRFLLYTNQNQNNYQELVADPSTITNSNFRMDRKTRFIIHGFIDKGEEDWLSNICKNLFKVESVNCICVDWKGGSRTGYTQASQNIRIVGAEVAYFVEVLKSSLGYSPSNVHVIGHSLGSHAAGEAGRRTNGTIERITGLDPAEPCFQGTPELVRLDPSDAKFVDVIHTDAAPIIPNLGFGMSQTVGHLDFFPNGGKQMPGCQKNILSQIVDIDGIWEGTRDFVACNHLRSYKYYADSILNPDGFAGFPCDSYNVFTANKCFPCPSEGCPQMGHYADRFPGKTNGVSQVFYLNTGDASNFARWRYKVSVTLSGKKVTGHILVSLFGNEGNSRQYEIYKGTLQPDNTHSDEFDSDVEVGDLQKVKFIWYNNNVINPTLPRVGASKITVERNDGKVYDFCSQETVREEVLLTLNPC
Protocol: Grind small pieces of cod meat into surimi, add alkaline protease, and hydrolyze for 2 h. The enzyme was then inactivated by high temperature and centrifuged. Finally, the supernatant was spray dried to obtain cod peptide (CP). According to the method of Hou et al. ([28]), the PL inhibition test was carried out on the protein hydrolysates, its gel chromatography fraction, and the pure peptides. The sample and PL were dissolved in Tris-HCl buffer (pH = 7.5), and pNPB was dissolved in acetonitrile, and diluted with tris-HCl buffer. Add 100 μL of the sample, 200 μL of Tris-HCl buffer, 150 μL of PL (5 mg/mL) to a 1.5 mL EP tube, incubate at 37°C for 10 min, and then add 150 μL of […] pNPB, shake and mix, and incubate at 37°C for 10 min. After the reaction was completed, the absorbance value at 405 nm was measured with a multifunctional microplate reader, and the PL inhibitory activity was calculated according to the following equation: Inhibition rate (%) = 1- (absorbance in the presence of inhibitor/[…] in negative control) × 100%.

[2] = target: T1, Porcine pancreatic lipase (PL); assay: Assay of PLIs kinetics (reversibility, Lineweaver-Burk plots); type: biochemical; details: from slope of Lineweaver-Burk plot vs. peptide concentration; read-out: Ki (competitive inhibition constant)
Protocol: According to the method reported in the previous literature, with a slight modification, the type of inhibition of PL by active peptides was determined ([29], [30]). The peptide (0.8 mg/mL, final concentration) was reacted with different concentrations (0, 5, 10, 15, 20 mg/mL) of PL for 10 min, then 10 mM pNPB was added for 10 min. the absorbance of the reaction system at a wavelength of 405 nm was measured to determine the reversibility of the reaction. Next, the optimal PL concentration (5 mg/mL) and peptide (0, 0.8 mg/mL, final concentration) were fixed, and pNPB with different concentrations (1, 2, 3, 4, and 5 mM) was added to react for 10 min, a value was measured every 30 s, and the wavelength was 405 nm. The Lineweaver-Burk double reciprocal curve was used to determine the maximum velocity (Vmax) and Michaelis–Menten constant (Km). The slope and y-intercept of the Lineweaver-Burk plot vs. peptide concentration give a straight line with the intercepts on the horizontal axis as Ki (competitive inhibition constant) and K'i values (uncompetitive inhibition constant), respectively.

Row | pIC50 [1] | pKi [2] | remaining activity at 6000 µg/mL ([1]; peptide concentration 6 mg/mL, read-out: residual activity on PL) [%] | Substance
1 | 3.00 | 2.38 |  | GSPPPSG [GSPPPSG]
2 | 2.87 | 2.85 | ~10 | KLEGDLK [KLEGDLK]
